Measured values as given in publication PMC12040169 (PLOS Biology, 2025).

Assay: in vitro
Conditions: human, hela cells, % viability

| SMILES | viability at 28.5 h, 10 µM [%] |
| --- | --- |
| Nc1cccc(-c2cncc(Nc3ccccc3)n2)c1 [CBK065265] | 96.2 |
| COc1cc(-c2cncc(NCCCO)n2)cc(OC)c1OC [CBK065271] | 95.5 |
| COc1cc(Nc2cncc(-c3cccc(F)c3)n2)cc(OC)c1OC [CBK065272] | 93 |
| CCC(CO)Nc1cncc(-c2cccc(N)c2)n1 (centres unmarked) [CBK065278] | 103 |
| COc1ncc(-c2cncc(Nc3ccccc3)n2)c(OC)n1 [CBK065282] | 100 |
| Clc1cccc(CNc2cncc(-c3cccnc3)n2)c1 [CBK065283] | 104 |
| COc1ccc(C(C)C)cc1-c1cncc(Nc2ccc(Cl)cc2)n1 [CBK065285] | 108 |
| COc1ncc(-c2cncc(N3CCCN(C)CC3)n2)c(OC)n1 [CBK065286] | 104 |
| CCCC/C=C/c1cncc(NCc2cccc(Cl)c2)n1 [CBK065293] | 97.3 |
| CN1CCCN(c2cncc(-c3ccc(F)c(Cl)c3)n2)CC1 [CBK065297] | 96.4 |
| COc1cc(-c2cncc(N(C)CCN(C)C)n2)cc(OC)c1OC [CBK065312] | 90.5 |
| c1cncc(-c2cncc(NCc3ccc4c(c3)OCO4)n2)c1 [CBK065313] | 94.6 |
| CCNc1cncc(-c2ccc(F)c(Cl)c2)n1 [CBK065322] | 101 |
| Clc1cccc(-c2cncc(NCc3ccc4c(c3)OCO4)n2)c1 [CBK065323] | 94.8 |
| CC(C)[C@H](CO)Nc1cncc(-c2ccccc2CO)n1 [CBK065326] | 88.6 |
| COc1cncc(-c2cncc(N[C@H](CO)C(C)C)n2)c1 [CBK065329] | 106 |
| OCc1ccccc1-c1cncc(N2CCCC2CO)n1 (centres unmarked) [CBK065333] | 106 |
| CCNc1cncc(-c2cc(OC)c(OC)c(OC)c2)n1 [CBK065336] | 99.1 |
| Fc1ccc(-c2cncc(NCc3ccncc3)n2)cc1Cl [CBK065343] | 94.7 |
| CC(C)c1ccc(-c2cncc(NCc3cccc(Cl)c3)n2)cc1 [CBK065347] | 106 |
| CCNc1cncc(-c2cncc(OC)c2)n1 [CBK065366] | 91.9 |
| CCNc1cncc(-c2ccc(OC)cc2)n1 [CBK065370] | 92.1 |
| CCCC/C=C/c1cncc(N(C)CCN(C)C)n1 [CBK065374] | 91.1 |
| CC(C)(CO)CNc1cncc(-c2ccc(O)cc2)n1 [CBK065386] | 113 |

| SMILES | viability at 28.5 h, 10 µM [%] |
| --- | --- |
| COc1ccc(CNc2cncc(-c3cncc(OC)c3)n2)cc1 [CBK065388] | 98.5 |
| COc1cc(-c2cncc(N3CCCC3CO)n2)cc(OC)c1OC (centres unmarked) [CBK065389] | 104 |
| CN(C)CCNC(=O)c1cccc(-c2cncc(N3CCN(c4ccncc4)CC3)n2)c1 [CBK065391] | 100 |
| CCCC/C=C/c1cncc(N2CCCC2CO)n1 (centres unmarked) [CBK065402] | 91.8 |
| CC(=O)Nc1cccc(-c2cncc(NC3CCC(O)CC3)n2)c1 (centres unmarked) [CBK065404] | 88.6 |
| CN(C)CCN1CCN(c2cncc(-c3cccnc3)n2)CC1 [CBK065416] | 93.2 |
| COc1cc(CNc2cncc(-c3cccc(C(=O)NCCO)c3)n2)cc(OC)c1OC [CBK065421] | 98.5 |
| CC(C)[C@@H](CO)Nc1cncc(-c2cccc(CO)c2)n1 [CBK065427] | 95.2 |
| OCC1CCCN1c1cncc(-c2cccnc2)n1 (centres unmarked) [CBK065439] | 100 |
| CCCNc1cncc(-c2cccc(F)c2)n1 [CBK065441] | 97.3 |
| OCc1cccc(-c2cncc(NC3CCC(O)CC3)n2)c1 (centres unmarked) [CBK065448] | 102 |
| OC1CCC(Nc2cncc(-c3cccc(F)c3)n2)CC1 (centres unmarked) [CBK065449] | 97.8 |
| OC1CCC(Nc2cncc(-c3ccc4ccccc4c3)n2)CC1 (centres unmarked) [CBK065463] | 91.7 |
| CC(C)[C@@H](CO)Nc1cncc(-c2cccnc2)n1 [CBK065467] | 98.5 |
| CCCC/C=C/c1cncc(N[C@@H](C)c2ccccc2)n1 [CBK065472] | 109 |
| COc1cc(CNc2cncc(-c3ccc(N)cc3)n2)cc(OC)c1OC [CBK065483] | 96.5 |
| CC(CCCC(C)(C)O)Nc1cncc(-c2cccc(C(=O)O)c2)n1 (centres unmarked) [CBK065489] | 103 |
| CC(C)[C@H](CO)Nc1cncc(-c2cccc3ccccc23)n1 [CBK065501] | 85.9 |
| COc1ccc(C(C)C)cc1-c1cncc(N[C@@H](C)c2ccccc2)n1 [CBK065504] | 115 |
| c1ccc(CCNc2cncc(-c3cccs3)n2)nc1 [CBK065510] | 98.2 |
| O=C(c1ccco1)N1CCN(c2cncc(-c3cccs3)n2)CC1 [CBK065518] | 114 |
| C[C@H](Nc1cncc(-c2ccccc2CO)n1)c1ccccc1 [CBK065520] | 116 |
| CC(CCCC(C)(C)O)Nc1cncc(-c2ccccc2CO)n1 (centres unmarked) [CBK065529] | 96.3 |
| CCC(CO)Nc1cncc(-c2cccs2)n1 (centres unmarked) [CBK065534] | 110 |

| SMILES | viability at 28.5 h, 10 µM [%] |
| --- | --- |
| COc1ccc(C(C)C)cc1-c1cncc(N[C@H](C)c2ccccc2)n1 [CBK065535] | 105 |
| COc1cncc(-c2cncc(N[C@H](C)c3ccccc3)n2)c1 [CBK065537] | 98.9 |
| CN1CCCN(c2cncc(-c3cccs3)n2)CC1 [CBK065542] | 101 |
| CC(C)[C@H](CO)Nc1cncc(-c2cccc(N(C)C)c2)n1 [CBK065547] | 81.9 |
| CN(C)c1cccc(-c2cncc(NCc3ccco3)n2)c1 [CBK065555] | 106 |
| CC(C)[C@@H](CO)Nc1cncc(-c2cccc3ccccc23)n1 [CBK065566] | 98.4 |
| CCC(CO)Nc1cncc(-c2cccc(/C=C/C(=O)O)c2)n1 (centres unmarked) [CBK065569] | 114 |
| c1coc(CNc2cncc(-c3cccc4ccccc34)n2)c1 [CBK065573] | 115 |
| c1csc(-c2cncc(NCc3ccncc3)n2)c1 [CBK065583] | 94.6 |
| CC(=O)Nc1ccc(-c2cncc(NCCCO)n2)cc1 [CBK065598] | 103 |
| CC(C)(CO)CNc1cncc(-c2cccs2)n1 [CBK065599] | 88.3 |
| c1csc(-c2cncc(NCCCN3CCOCC3)n2)c1 [CBK065623] | 102 |
| c1coc(CNc2cncc(-c3cccs3)n2)c1 [CBK065630] | 96.6 |
| CN(C)c1cccc(-c2cncc(NCCCN3CCOCC3)n2)c1 [CBK065635] | 94.8 |
| C[C@@H](Nc1cncc(-c2cccc3ccccc23)n1)c1ccccc1 [CBK065646] | 93.4 |
| CN(C)CCN(C)c1cncc(-c2ccc(F)cc2F)n1 [CBK065652] | 90.9 |
| C[C@H](Nc1cncc(-c2cccc3ccccc23)n1)c1ccccc1 [CBK065654] | 93.6 |
| N#Cc1ccccc1N1CCN(c2cncc(-c3cccs3)n2)CC1 [CBK065656] | 104 |
| CCNc1cncc(-c2ccc(N)cc2)n1 [CBK065658] | 112 |
| COc1cc(Nc2cncc(-c3cccs3)n2)cc(OC)c1OC [CBK065663] | 80.4 |
| CN(C)CCN(C)c1cncc(-c2cccs2)n1 [CBK065679] | 108 |
| Nc1ccc(-c2cncc(N3CCN(c4ccncc4)CC3)n2)cc1 [CBK065681] | 97 |
| C[C@H](Nc1cncc(-c2ccc(F)cc2F)n1)c1ccccc1 [CBK065684] | 98.9 |
| Fc1ccc(-c2cncc(Nc3ccc4c(c3)OC(F)(F)C(F)(F)O4)n2)c(F)c1 [CBK065692] | 103 |

| SMILES | viability at 28.5 h, 10 µM [%] |
| --- | --- |
| C[C@H](Nc1cncc(-c2cccc(N(C)C)c2)n1)c1ccccc1 [CBK065699] | 96.8 |
| CCN(CC)CCN1CCN(c2cncc(-c3cccs3)n2)CC1 [CBK065703] | 95.5 |
| N#Cc1ccccc1N1CCN(c2cncc(-c3ccc(F)cc3F)n2)CC1 [CBK065708] | 102 |
| C[C@H](Nc1cncc(-c2cccs2)n1)c1ccccc1 [CBK065719] | 93.5 |
| CCOc1ccc(-c2cncc(N[C@@H](C)c3ccccc3)n2)cc1 [CBK065720] | 106 |
| CN(C)CCN(C)c1cncc(-c2ccc(Cl)cc2)n1 [CBK065724] | 93 |
| CC(=O)Nc1ccc(-c2cncc(Nc3ccc4c(c3)OC(F)(F)C(F)(F)O4)n2)cc1 [CBK065726] | 98.7 |
| FC1(F)Oc2ccc(Nc3cncc(-c4cccs4)n3)cc2OC1(F)F [CBK065727] | 110 |
| CCOc1ccc(-c2cncc(Nc3ccc4c(c3)OC(F)(F)C(F)(F)O4)n2)cc1 [CBK065728] | 96.8 |
| CN(C)c1cccc(-c2cncc(Nc3ccc(Cl)cc3)n2)c1 [CBK065738] | 98.8 |
| OCCN(CCO)c1cncc(-c2ccc(Cl)cc2)n1 [CBK065748] | 95.2 |
| FC(F)(F)c1cccc(Nc2cncc(-c3cccs3)n2)c1 [CBK065750] | 125 |
| CCN(CC)CCN1CCN(c2cncc(-c3cccc(N)c3)n2)CC1 [CBK065751] | 97.2 |
| CCC(CO)Nc1cncc(-c2cccc(F)c2)n1 (centres unmarked) [CBK065752] | 96.1 |
| Fc1ccc(-c2cncc(Nc3cccc(C(F)(F)F)c3)n2)c(F)c1 [CBK065763] | 92.5 |
| CC(=O)Nc1ccc(-c2cncc(Nc3ccc(F)c(Cl)c3)n2)cc1 [CBK065765] | 96.1 |
| CCOc1ccc(-c2cncc(NCCc3ccncc3)n2)cc1 [CBK065774] | 94.6 |
| CCC(CO)Nc1cncc(-c2ccccc2CO)n1 (centres unmarked) [CBK065775] | 103 |
| CCC(CO)Nc1cncc(-c2cccc(C(F)(F)F)c2)n1 (centres unmarked) [CBK065783] | 99.4 |
| O=C(NCCO)c1cccc(-c2cncc(N3CCN(Cc4ccccn4)CC3)n2)c1 [CBK065784] | 90.1 |
| CN(C)c1cccc(-c2cncc(Nc3cccc(C(F)(F)F)c3)n2)c1 [CBK065786] | 100 |
| CC(=O)Nc1ccc(-c2cncc(N(CCO)CCO)n2)cc1 [CBK065789] | 106 |
| COc1ccc(C(C)C)cc1-c1cncc(N2CCN(Cc3ccccn3)CC2)n1 [CBK065792] | 88.6 |
